From US10597388B2, “Pyridazinone herbicides” (FMC CORPORATION, priority 2014, dated 2020)
Where two headings read alike, the source gives them in different places.

What was measured:
Format in all cases: in vivo
[1] = test system: crabgrass, large (large crabgrass, Digitaria sanguinalis); experiment: Test A greenhouse herbicide test, pre- and postemergence; conditions: Digitaria sanguinalis, 240 h; for pest or weed control at 125 g/ha: 125 g ai/ha; for pest or weed control at 500 g/ha: 500 g ai/ha; for pest or weed control at 500 g/ha / pest or weed control at 1000 g/ha: 0 to 100 scale; for pest or weed control at 1000 g/ha: 1000 g ai/ha
How it was run: (§1)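 Seeds in loam–sand blend received a preemergence directed soil spray; plants at 2–10 cm, one- to two-leaf stage, received postemergence sprays. Compounds in a non-phytotoxic solvent with surfactant. After about 10 d in a greenhouse, injury rated visually versus untreated controls on a 0–100 scale (100 = complete control).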

[2] = test system: momingglory (Ipomoea spp.); experiment: as above; conditions: Ipomoea, 240 h; for pest or weed control at 125 g/ha: 125 g ai/ha; for pest or weed control at 500 g/ha: 500 g ai/ha; for pest or weed control at 500 g/ha / pest or weed control at 1000 g/ha: 0 to 100 scale; for pest or weed control at 1000 g/ha: 1000 g ai/ha
How it was run: as §1

[3] = test system: velvetleaf (Abutilon theophrasti); experiment: as above; conditions: Abutilon theophrasti, 240 h; for pest or weed control at 125 g/ha: 125 g ai/ha; for pest or weed control at 500 g/ha: 500 g ai/ha; for pest or weed control at 500 g/ha / pest or weed control at 1000 g/ha: 0 to 100 scale; for pest or weed control at 1000 g/ha: 1000 g ai/ha
How it was run: as §1

[4] = test system: Canada thistle (Cirsium arvense); experiment: Test D controlled growth environment herbicide test, pre- and postemergence
How it was run: (§2)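 Species sown in silt loam and sprayed preemergence, or grown in peat-based medium to 2–18 cm (1- to 4-leaf stage) and sprayed postemergence, with compounds in non-phytotoxic solvent plus surfactant. Visual injury scored versus controls after 14–21 d in a controlled environment, 0 (no effect) to 100 (complete control).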

[5] = test system: geranium, cutleaf (cutleaf geranium, Geranium dissectum); experiment: as above
How it was run: as §2

[6] = post-emergence, Postemergence, visual rating after approx. 10 d, 0 to 100 scale (0 no effect, 100 complete control), read-out: Plant response rating, Crabgrass, Large
[7] = post-emergence, Postemergence, 0 is no effect, 100 is complete control, read-out: Crabgrass, Large plant response rating
[8] = pre-emergence, Preemergence, 0 to 100 scale where 0 is no effect and 100 is complete control, read-out: Crabgrass, Large plant response rating
[9] = pre-emergence, Preemergence, 0 no effect, 100 complete control, read-out: Plant response rating, Crabgrass, Large
[10] = post-emergence, Postemergence, visual rating after approx. 10 d, 0 to 100 scale (0 no effect, 100 complete control), read-out: Plant response rating, Morningglory
[11] = post-emergence, Postemergence, 0 is no effect, 100 is complete control, read-out: Morningglory plant response rating
[12] = pre-emergence, Preemergence, 0 to 100 scale where 0 is no effect and 100 is complete control, read-out: Morningglory plant response rating
[13] = pre-emergence, Preemergence, 0 no effect, 100 complete control, read-out: Plant response rating, Morningglory
[14] = post-emergence, Postemergence, visual rating after approx. 10 d, 0 to 100 scale (0 no effect, 100 complete control), read-out: Plant response rating, Velvetleaf
[15] = post-emergence, Postemergence, 0 is no effect, 100 is complete control, read-out: Velvetleaf plant response rating
[16] = pre-emergence, Preemergence, 0 to 100 scale where 0 is no effect and 100 is complete control, read-out: Velvetleaf plant response rating
[17] = pre-emergence, Preemergence, 0 no effect, 100 complete control, read-out: Plant response rating, Velvetleaf
[18] = Postemergence, 31 g ai/ha, scale 0 to 100 (0 no effect, 100 complete control)
[19] = Postemergence, 125 g ai/ha, visual rating on scale 0 (no effect) to 100 (complete control), 14 to 21 d
[20] = Postemergence, 250 g ai/ha, scale 0 to 100 (0 no effect, 100 complete control)
[21] = Preemergence, 125 g ai/ha, scale 0 to 100 (0 no effect, 100 complete control)
[22] = Preemergence, 250 g ai/ha, scale 0 to 100, 0 no effect, 100 complete control
[23] = postemergence, 62 g ai/ha, scale 0 to 100, 0 no effect, 100 complete control

SMILES	pest or weed control at 125 g/ha [1, 6]	pest or weed control at 500 g/ha [1, 7]	pest or weed control at 125 g/ha [1, 8]	pest or weed control at 500 g/ha [1, 9]	pest or weed control at 125 g/ha [2, 10]	pest or weed control at 500 g/ha [2, 11]	pest or weed control at 125 g/ha [2, 12]	pest or weed control at 500 g/ha [2, 13]	pest or weed control at 125 g/ha [3, 14]	pest or weed control at 500 g/ha [3, 15]	pest or weed control at 125 g/ha [3, 16]	pest or weed control at 500 g/ha [3, 17]	pest or weed control at 1000 g/ha [1, 7]	pest or weed control at 1000 g/ha [1, 9]	pest or weed control at 1000 g/ha [2, 11]	pest or weed control at 1000 g/ha [2, 13]	pest or weed control at 1000 g/ha [3, 15]	pest or weed control at 1000 g/ha [3, 17]	other results
Cc1cc(C)c2sc(C)c(-c3c(O)c(C)nn(C)c3=O)c2c1 [Compound 2, 5-hydroxy-2,6-dimethyl-4-(2,5,7-trimethylbenzo[b]thien-3-yl)-3(2H)-pyridazinone]	50%	70%	90%	100%	100%	100%	80%	100%	100%	100%	80%	90%							
Cc1nn(C)c(=O)c(-c2c(C)oc3cccc(C)c23)c1O [Compound 8, 4-(2,4-dimethyl-3-benzofuranyl)-5-hydroxy-2,6-dimethyl-3(2H)-pyridazinone]	0%	30%	10%	60%	0%	10%	0%	0%	60%	60%	0%	30%							
CCc1oc2ccc(C)cc2c1-c1c(O)c(C)nn(C)c1=O [Compound 10, 4-(2-ethyl-5-methyl-3-benzofuranyl)-5-hydroxy-2,6-dimethyl-3(2H)-pyridazinone]													70%	90%	100%	90%	100%	90%	
Cc1nn(C)c(=O)c(-c2cccc3ccccc23)c1O [Compound 11, 5-hydroxy-2,6-dimethyl-4-(1-naphthalenyl)-3(2H)-pyridazinone]													70%	80%	90%	90%	100%	80%	
Cc1nn(C)c(=O)c(-c2cccc3ccc(Br)cc23)c1O [Compound 126]																			Canada Thistle plant response rating [4, 18]: 98; Plant response rating, Canada Thistle [4, 19]: 98; Plant response rating, Canada Thistle [4, 20]: 100; Plant response rating (scale of 0 to 100), Canada Thistle ([4]; Preemergence, 31 g ai/ha): 0; Plant response rating, Canada Thistle ([4]; Preemergence, 62 g ai/ha, scale 0 to 100 (0 no effect, 100 complete control)): 15; Plant response rating, Canada Thistle [4, 21]: 95; Plant response rating, Canada Thistle [4, 22]: 95; Plant response rating, Canada Thistle [4, 23]: 100; Geranium, Cutleaf plant response rating [5, 18]: 30; Plant response rating, Geranium, Cutleaf [5, 19]: 80; Plant response rating, Geranium, Cutleaf [5, 20]: 90; Plant response rating (scale of 0 to 100), Geranium, Cutleaf ([5]; Preemergence, 31 g ai/ha): 0; Plant response rating (scale of 0 to 100), Geranium, Cutleaf ([5]; Preemergence, 62 g ai/ha): 0; Plant response rating, Geranium, Cutleaf [5, 21]: 0; Plant response rating, Geranium, Cutleaf [5, 22]: 15; Plant response rating, Geranium, Cutleaf [5, 23]: 40
